Here are results for two molecules from patent US11372007B2, “Method of detecting biological material, and chemiluminescent indicator used therein” (Osaka University, priority 2017, dated 2022).

For test [1], the target named is T1, UnaG (CΔ0)-NLuc (NΔ1) fusion protein (wild-type chemiluminescent bilirubin indicator, linker GT), SEQ ID NO: 12 (Anguilla japonica, UniProt P0DM59).
T1 construct: made in house; host or cells: E. coli JM109 (DE3)
Nature of the test: titration curve of the wild-type chemiluminescent bilirubin indicator with bilirubin (luminescence spectra, Hill fit). The class given is binding. As for the experimental part: The base sequence of this UnaG (CΔ0)-NLuc (NΔ1) fusion protein is represented by SEQ ID NO: 11, and the amino acid sequence of the same is represented by SEQ ID NO: 12.
The JM109 (DE3) strain transformed with the UnaG (CΔ0)-NLuc (NΔ1) fusion protein was cultured at 23° C. for 60 hours in 200 mL of LB medium containing 100 μg/mL Carvenisillin solution. After harvesting, the E. coli cells were disrupted by the French press method and purified by affinity chromatography using a Ni-NTA column (QIAGEN). Furthermore, in order to remove excess imidazole, a gel filtration column (PD-10, GE HealthCare) was used. The protein concentration was measured by the Bradford method.
500 μL of the purified UnaG (CΔ0)-NLuc (NΔ1) fusion protein was added to a 15-mL Falcon tube and frozen with liquid nitrogen. Thereafter, a powder of the protein solution was obtained by a lyophilizer. […]
0.01 nM, 0.05 nM, 0.1 nM, 0.5 nM, 1 nM, 2.5 nM, 5 nM, or 10 nM bilirubin (BR) solution and Coelenterazine-h at a final concentration of 5 μM were mixed with the UnaG(CΔ0)-NLuc(NΔ1) fusion protein at a final concentration of 5 nM, and luminescence spectra were measured using a multichannel spectroscope (PMA-12, manufactured by Hamamatsu Photonics K.K.) or a plate reader. […] Mean values of measured values obtained by three independent measurements were plotted, and then fitted as per the Hill equation. […]

The target in the next test is UnaG protein (wild type; UniProtKB/Swiss-Prot: P0DM59.1, GenBank: AB763906.1). As to conditions: indirect bilirubin; Kumagai et al., Cell 2013, 153, 1602-1611; read-out: dissociation constant; cited from earlier work.

T1 sequence (P0DM59 with tags, fused parts or gaps): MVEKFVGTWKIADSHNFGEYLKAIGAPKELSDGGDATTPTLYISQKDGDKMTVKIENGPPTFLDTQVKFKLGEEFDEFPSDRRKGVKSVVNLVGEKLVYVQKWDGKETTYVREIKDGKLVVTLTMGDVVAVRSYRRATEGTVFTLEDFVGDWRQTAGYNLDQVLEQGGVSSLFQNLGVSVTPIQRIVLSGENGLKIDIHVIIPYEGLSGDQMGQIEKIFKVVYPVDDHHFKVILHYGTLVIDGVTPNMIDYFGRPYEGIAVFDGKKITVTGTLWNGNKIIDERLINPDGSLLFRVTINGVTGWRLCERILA

The molecule `C=CC1=C(C)/C(=C/c2[nH]c(Cc3[nH]c(/C=C4\NC(=O)C(C)=C4C=C)c(C)c3CCC(=O)O)c(CCC(=O)O)c2C)NC1=O` [bilirubin] came in with a Kd in test [1] (fusion protein 5 nM, bilirubin 0.01-10 nM, Coelenterazine-h 5 μM, mean of three independent measurements, fitted as per the Hill equation) of 3.05 nM. The “affinity for bilirubin (dissociation constant, Kd value), change on storage” value in test [1] (lyophilized sample dissolved in water, stored at room temperature) is reported as “the affinity was slightly reduced”.

On to `C=CC1=C(C)/C(=C/c2[nH]c(Cc3[nH]c(/C=C4\NC(=O)C(C)=C4C=C)c(C)c3CCC(=O)O)c(CCC(=O)O)c2C)NC1=O` [indirect bilirubin], for which the Kd on UnaG protein is 0.098 nM.
